Converted amounts (≈) assume the structure as drawn.
Assays:
[1] = system: Staphylococcus aureus ATCC 25923; test: Broth microdilution MIC/MBC; conditions: Staphylococcus aureus, ATCC25923
[2] = system: Staphylococcus aureus ATCC 29213; test: Broth microdilution MIC/MBC; conditions: ATCC29213
[3] = system: Pseudomonas aeruginosa ATCC 9027; test: Broth microdilution MIC/MBC; conditions: ATCC9027
[4] = system: Micrococcus luteus ATCC 10240; test: Broth microdilution MIC/MBC; conditions: Micrococcus luteus, ATCC10240
[5] = system: Salmonella typhimurium ATCC 14028; test: Broth microdilution MIC/MBC; conditions: Salmonella enterica
[6] = system: Staphylococcus epidermidis ATCC 12228; test: Broth microdilution MIC/MBC; conditions: ATCC12228
[7] = system: Klebsiella pneumoniae ATCC 13883; test: Broth microdilution MIC/MBC; conditions: ATCC13883
[8] = system: Gram-positive bacteria; test: Broth microdilution, summary over reference Gram-positive bacteria; type: cell-based; conditions: reference Gram-positive bacteria / studied bacteria
Source text: (§1) Procedures of in vitro antimicrobial assays are described in Supplementary Materials.
(§2) 2. Microbiology – in vitro antimicrobial activity assays […]
(§3) using the broth microdilution method according to the European Committee on Antimicrobial Susceptibility Testing (EUCAST) and Clinical and Laboratory Standards Institute guidelines against a panel of reference and clinical or saprophytic strains of mi croorganisms, including the Gram-positive bacteria: Staphylococcus aureus ATCC 43300 (Methi-cillin Resistant S. aureus – MRSA), Staphylococcus aureus ATCC 29213 (Methicillin Susceptible S. aureus – MSSA), Staph-ylococcus epidermidis ATCC 12228, Micrococcus luteus ATCC 10240, Bacillus subtilis ATCC 6633 and Bacillus cereus ATCC 10876), Gram-negative bacteria: Bordetella bronchiseptica ATCC 4617, Escherichia coli ATCC 25922, Klebsiella pneumoniae ATCC 13883, Proteus mirabilis ATCC 12453, Salmonella typhimurium ATCC 14028 and Pseudomonas aeruginosa ATCC 9027, and fungi belonging to yeasts: Candida albicans ATCC 10231, Candida albicans ATCC 2091, Candida parapsilosis ATCC 22019, Candida glabrata ATCC 90030 and Candida krusei ATCC 14243. The microorganisms belonging to ATCC originated from American Type Culture Collection, routinely used for the evaluation of antimicrobials. All the used microbial cultures were first subcultured on nutrient agar or Sabouraud agar at 35°C for 18-24 h or 30°C for 24-48 h for bacteria […]
(§4) The surface of Mueller-Hinton agar (for bacteria) and RPMI 1640 with MOPS (for fungi) were inoculated with the suspensions of bacterial or fungal species. Microbial suspensions were prepared in sterile saline with an optical density of McFarland standard scale 0.5. The samples containing the compounds were dissolved in dimethyl sulfoxide (DMSO).
(§5) Furthermore, the bacterial and fungal suspensions put onto the Petri dishes with solid media containing 2 mg/mL of the tested compounds followed were incubated at 37°C for 24h and 30°C for 48h for bacteria and fungi, respectively.
(§6) The inhibition of microbial growth was estimated comparing with a control culture prepared without any tested sam- […]
(§7) antifungal compounds, respectively.
(§8) Subsequently, MIC (Minimal Inhibitory Concentration) of the compounds was examined by the microdilution broth method, using their two-fold dilutions in Mueller-Hinton broth (for bacteria) and RPMI 1640 broth with MOPS (for fungi) prepared in the 96-well polystyrene plates. The final concentrations of the compounds ranged from 1000 to 0.488 µg/mL. Microbial suspensions were prepared in 0.85% NaCl with an optical density of 0.5 McFarland standard. Next each bacterial or fungal suspension was added per each well containing broth and various concentrations of the exam-ined compounds. After incubation, the MIC was assessed spectrophotometrically as the lowest concentration of the […]
(§9) Appropriate DMSO, growth and sterile controls were carried out. The medium with no tested substances was used as a control The MBC (Minimal Bactericidal Concentration) and MFC (Minimal Fungicidal Concentration) are defined as the lowest concentration of the compounds that is required to kill a particular bacterial or fungal species. The MBC/MFC was determined by removing the culture used for the MIC determination from each well and spotted onto the appro-priate agar medium. The plates were incubated under appropriate conditions for bacteria and fungi. The lowest com-pounds concentration with no visible growth observed was assessed as a bactericidal/fungicidal concentration. All the experiments were repeated three times and the representative data are presented.
(§10) 1. European Committee for Antimicrobial Susceptibility Testing (EUCAST) Determination of minimum inhibitory con-centrations (MICs) of antibacterial agents by broth dilution. EUCAST discussion document E. Dis 5.1. Clin. Microbiol.
(§11) 2. Clinical and Laboratory Standards Institute. Reference method for broth dilution antifungal susceptibility testing of […]

[9] = system: Staphylococcus aureus ATCC 43300; test: Broth microdilution MIC/MBC; conditions: ATCC43300 / MRSA
[10] = system: Candida spp.; test: Broth microdilution, summary over reference yeasts; type: cell-based
Source text: as §1, §2, §3, §4, §5, §6, §7, §8, §9, §10, §11

[11] = system: Bacillus cereus ATCC 10876; test: Broth microdilution MIC/MBC; conditions: Bacillus cereus, ATCC10876
[12] = system: Bordetella bronchiseptica ATCC 4617; test: Broth microdilution MIC/MBC; conditions: ATCC4617
[13] = system: Candida glabrata ATCC 90030; test: Broth microdilution MIC/MFC; type: cell-based; conditions: Nakaseomyces glabratus; for MFC: ATCC90030, read-out: MFC; for MIC: ATCC90030, read-out: MIC
Source text: as §1, §2, §3, §4, §5, §6, §7, §8, §9, §10, §11

[14] = system: Candida parapsilosis ATCC 22019; test: Broth microdilution MIC/MFC; type: cell-based; conditions: Lodderomyces parapsilosis; for MFC: ATCC22019, read-out: MFC; for MIC: ATCC22019, read-out: MIC
Source text: as §1, §2, §3, §4, §5, §6, §7, §8, §9, §10, §11

[15] = system: Candida albicans ATCC 2091; test: Broth microdilution MIC/MFC; type: cell-based; conditions: for MFC: ATCC2091, read-out: MFC; for MIC: ATCC2091, read-out: MIC
Source text: as §1, §2, §3, §4, §5, §6, §7, §8, §9, §10, §11

[16] = system: Candida albicans ATCC 10231; test: Broth microdilution MIC/MFC; type: cell-based; conditions: for MFC: ATCC10231, read-out: MFC; for MIC: ATCC10231, read-out: MIC
Source text: as §1, §2, §3, §4, §5, §6, §7, §8, §9, §10, §11

[17] = system: Candida krusei ATCC 14243; test: Broth microdilution MIC/MFC; type: cell-based; conditions: Pichia kudriavzevii; for MFC: ATCC14243, read-out: MFC; for MIC: ATCC14243, read-out: MIC
Source text: as §1, §2, §3, §4, §5, §6, §7, §8, §9, §10, §11

[18] = system: Proteus mirabilis ATCC 12453; test: Broth microdilution MIC/MBC; conditions: ATCC12453
[19] = system: Escherichia coli ATCC 25922; test: Broth microdilution MIC/MBC; conditions: ATCC25922
[20] = system: Bacillus subtilis ATCC 6633; test: Broth microdilution MIC/MBC; conditions: ATCC6633
[21] = range over the reference Candida spp. strains

SMILES	MIC [1] [µg/mL]	MIC [2] [µg/mL]	MIC [3] [µg/mL]	MIC [4] [µg/mL]	MIC [5] [µg/mL]	melting point [°C]	MIC [6] [µg/mL]	MIC [7] [µg/mL]	MIC [9] [µg/mL]	MIC [10, 21] [µg/mL]	MIC [11] [µg/mL]	MIC [12] [µg/mL]	MFC [13] [µg/mL]	MIC [13] [µg/mL]	MFC [14] [µg/mL]	MIC [14] [µg/mL]	MFC [15] [µg/mL]	MIC [15] [µg/mL]	MFC [16] [µg/mL]	MIC [16] [µg/mL]	other results
O=C(N/N=C/c1cc(O)ccc1O)c1cccc(I)c1 [Compound 19, N-[(2,5-dihydroxyphenyl)methylidene]-3-iodobenzohydrazide]	> 1000	> 1000	> 1000	> 1000	> 1000	220 to 224	> 1000	> 1000	> 1000	125 to 500 (≈ 327 to 1310 µM)	> 1000	> 1000	> 1000	500 (≈ 1310 µM)	> 1000	125 (≈ 327 µM)	> 1000	500 (≈ 1310 µM)	> 1000	250 (≈ 654 µM)	antibacterial activity in words [8]: no activity; MFC/MIC [10, 21]: > 4; antifungal activity in words ([10]; reference yeasts from Candida spp.): good and moderate; MFC [17]: > 1000 µg/mL; MIC [17]: 250 µg/mL (≈ 654 µM); MIC [18]: > 1000 µg/mL; MIC [19]: > 1000 µg/mL; MIC [20]: > 1000 µg/mL
O=C(N/N=C/c1cc(O)ccc1O)c1ccc(I)cc1 [Compound 26, N-[(2,5-dihydroxyphenyl)methylidene]-4-iodobenzohydrazide]	> 1000	> 1000	> 1000	500 (≈ 1310 µM)	> 1000	261 to 265	1000 (≈ 2620 µM)	> 1000	1000 (≈ 2620 µM)	250 to 1000 (≈ 654 to 2620 µM)	> 1000	> 1000	> 1000	1000 (≈ 2620 µM)	> 1000	250 (≈ 654 µM)	> 1000	1000 (≈ 2620 µM)	> 1000	500 (≈ 1310 µM)	MBC [4]: > 1000 µg/mL; MBC [6]: > 1000 µg/mL; MBC [9]: > 1000 µg/mL; MFC [10, 21]: > 1000 µg/mL; MFC [17]: > 1000 µg/mL; MIC [17]: 500 µg/mL (≈ 1310 µM); MIC [18]: > 1000 µg/mL; MIC [19]: > 1000 µg/mL; MBC [20]: > 1000 µg/mL; MIC [20]: 500 µg/mL (≈ 1310 µM)
O=C(N/N=C/c1cc(Br)cc(Br)c1O)c1ccc(I)cc1 [Compound 28, N-[(3,5-dibromo-2-hydroxyphenyl)methylidene]-4-iodobenzohydrazide]	> 1000	> 1000	> 1000	> 1000	> 1000	210 to 211	> 1000	> 1000	> 1000	250 to 1000 (≈ 477 to 1910 µM)	> 1000	> 1000	> 1000	1000 (≈ 1910 µM)	> 1000	500 (≈ 954 µM)	> 1000	1000 (≈ 1910 µM)	> 1000	500 (≈ 954 µM)	antibacterial activity in words [8]: No antimicrobial effect; MFC [10, 21]: > 1000 µg/mL; MFC [17]: > 1000 µg/mL; MIC [17]: 1000 µg/mL (≈ 1910 µM); MIC [18]: > 1000 µg/mL; MIC [19]: > 1000 µg/mL; MIC [20]: > 1000 µg/mL
